Measurements reported in article PMC10673369, “Preliminary SAR of Novel Pleuromutilin–Polyamine Conjugates” (Microorganisms, 2023).

Tests used:
Assay type in all cases: cell-based
E. coli ATCC 25922 = test: Antibiotic enhancement of erythromycin; details: for Erythro/E.c.: fold change, ratio between intrinsic MIC of test compound and combination MIC: erythromycin at 2.7 µM; for Erythro/E.c.: concentration required to restore erythromycin activity: erythromycin at 2.7 µM (2 µg/mL)
Procedure: [Worded in the source for another target; used here, by the source, with some conditions changed.] Antibiotic restoring enhancer concentrations were determined using reported protocols (see Supplementary File).
(§1) Briefly, restoring enhancer concentrations were determined with an inoculum of 5x10^5 CFU in 200 µL of MHB containing two-fold serial dilutions of each derivative in the presence of doxycycline at 4.5 […]
(§2) The lowest concentration of the polyamine
(§3) These measurements were independently repeated in triplicate.
Outer membrane permeabilization was measured using nitrocefin as a chromogenic substrate of periplasmic β-lactamase. Ten milliliters of MH broth were inoculated with 0.1 mL of an overnight culture of PAO1 bacteria and grown at 37°C until the OD600 reached 0.5. The remaining steps were performed at room temperature. Cells were recovered by centrifugation (4000 rpm for 20 min) and washed once in 20 mM potassium phosphate buffer (pH 7.2) containing MgCl2 (1 mM). After a second centrifugation, the pellet was resuspended and adjusted to OD600 of 0.5. Then, 50 µL of the desired compound was added to 100 µL of the cell suspension to obtain a final concentration varying from 3.9 µM to 250 µM. Fifty microliters of nitrocefin were then added to obtain a final concentration of 50 µg/mL. Nitrocefin hydrolysis was monitored spectrophotometrically by measuring the increase in absorbance at 490 nm. Assays were performed in 96-well plates using a M200 Pro Tecan […]
(§4) HEK293 cells were counted manually in a Neubauer hemocytometer and plated at a density of 5,000 cells/well into each well of the 384-well plates containing the 25x (2 µL) concentrated compounds [26,27]. The medium used was Dulbecco's modified Eagle’s medium (DMEM), supplemented with 10% fetal bovine serum (FBS). Cells were incubated together with the compounds for 20 h at 37 °C, 5% CO2.
(§5) To measure cytotoxicity, 5 µL (equals 100 µM final) of resazurin was added to each well after incubation and incubated for further 3 h at 37 °C with 5% CO2. After the final incubation, fluorescence intensity […]
(§6) reader. CC50 values (concentration at 50% cytotoxicity) were calculated by normalizing the fluorescence readout, with 74 µg/mL tamoxifen as negative control (0%) and normal cell growth as positive control (100%). The concentration-dependent percentage cytotoxicity was fitted to a dose–response function (using Pipeline Pilot) and CC50 values were determined.
Human whole blood was washed three times with three volumes of 0.9% NaCl and then resuspended in the same solution to a concentration of 0.5 x 10^8 cells/mL, as determined by the manual cell count in a Neubauer hemocytometer. The washed cells were then added to the 384-well compound-containing plates for a final volume of 50 µL. After a 10 min shake on a plate shaker, the plates were then incubated for 1 h at 37 °C. After incubation, the plates were centrifuged at 1,000g for 10 min to pellet cells and debris; 25 µL of the supernatant was then transferred to a polystyrene 384-well assay plate. Hemolysis was determined by measuring the supernatant absorbance at […] (OD405). The absorbance was measured using a Tecan M1000 Pro monochromator plate reader. HC10 and HC50 (concentration at 10% and 50% hemolysis, respectively) were calculated by curve fitting the inhibition values vs. log (concentration) using a sigmoidal dose–response function with variable fitting values for the top, bottom, and slope.
2.8. Real-time growth curves
Solutions of the compound at concentrations of 2, 4, and 16 µg/mL were tested each in triplicate against S. aureus ATCC 25923 [26]. Typically, in a 96-well plate were placed 10 µL of 40, 80, and 320 µg/mL stock solutions of compound, as well as 190 µL of a 5 x 10^5 CFU/mL of the selected bacterial suspension in brain heart infusion (BHI) broth. Positive controls containing only 200 µL of a 5 x 10^5 CFU/mL of bacterial suspension in BHI and negative controls containing only 200 µL of BHI broth were added. The plate was incubated at 37°C in a TECAN Spark Reader (Roche Diagnostic) and real-time […]

[1] = Cytotoxicity assay, HEK293; details: human; HEK293 cells; mean (n = 2); read-out: Cytotoxicity (IC50), concentration of compound at 50% cytotoxicity
Procedure: Cytotoxicity assays were conducted using reported protocols (see Supplementary File). […]
as §4, §5
as §6, with “determined. […]” for “determined.”

S. aureus ATCC 25923 = test: Real-time growth inhibition curves, S. aureus; details: optical density during 18 h culturing
Procedure: Real-time growth curves were determined using reported protocols (see Supplementary File).
Further investigation is required to determine the factors leading to the differences observed in the sub-MIC growth curves for the two compounds.
as §1, §2, §3
(§7) Outer membrane permeabilization was measured using nitrocefin as a chromogenic substrate of periplasmic β-lactamase. […] Nitrocefin hydrolysis was monitored spectrophotometrically by measuring the increase in absorbance at 490 nm. […]
(§8) HEK293 cells were counted manually in a Neubauer hemocytometer and plated at a density of 5,000 cells/well into each well of the 384-well plates containing the 25x (2 µL) concentrated compounds [26,27]. […]
as §5
reader. […] The concentration-dependent percentage cytotoxicity was fitted to a dose–response function (using Pipeline Pilot) and CC50 values were determined. […]

P. aeruginosa PAO1 [2] = test: Nitrocefin hydrolysis assay (outer membrane permeabilization); details: polymyxin B at 98.3 μM ([…])
Procedure: Nitrocefin assays were conducted using reported protocols (see Supplementary File).
We also examined the ability of 9e to act as membrane disruptor of the Gram-negative bacteria P. aeruginosa PAO1 (Figure 5), using a nitrocefin colorimetric assay. This assay makes use of a chromogenic cephalosporin derivative, which in the presence of an outer membrane disruptor gains entry to the periplasm, where upon the action of β-lactamases leads to substrate hydrolysis with a detectable color change from yellow to red.
as §1, §2, §3, §7, §8, §5
reader. […] The concentration-dependent percentage cytotoxicity was fitted to a dose–response function (using Pipeline Pilot) and CC50 values were determined.
Human whole blood was washed three times with three volumes of 0.9% NaCl and then resuspended in the same solution to a concentration of 0.5 x 10^8 cells/mL, as determined by the manual cell count in a Neubauer hemocytometer. […] Hemolysis was determined by measuring the supernatant absorbance at […] (OD405). The absorbance was measured using a Tecan M1000 Pro monochromator plate reader. […]

P. aeruginosa PAO1 [3] = test: Real-time growth inhibition curves, P. aeruginosa; details: optical density during 18 h culturing

| SMILES | Erythro/E.c.: fold change, ratio between intrinsic MIC of test compound and combination MIC (E. coli ATCC 25922) | IC50 at 20 h [1] [µM] | Erythro/E.c.: concentration required to restore erythromycin activity (E. coli ATCC 25922) [µM] | Real-time bacterial growth inhibition (S. aureus ATCC 25923) | Outer membrane perturbation (nitrocefin hydrolysis) (P. aeruginosa PAO1 [2]) | Real-time bacterial growth inhibition (P. aeruginosa PAO1 [3]) |
| --- | --- | --- | --- | --- | --- | --- |
| C=C[C@]1(C)C[C@@H](OC(=O)CNCCCNCCCCNCCCNCC(=O)O[C@@H]2C[C@@](C)(C=C)[C@@H](O)[C@H](C)[C@]34CCC(=O)[C@H]3[C@@]2(C)[C@H](C)CC4)[C@]2(C)[C@H](C)CC[C@]3(CCC(=O)[C@H]32)[C@@H](C)[C@@H]1O.O=C(O)C(F)(F)F.O=C(O)C(F)(F)F.O=C(O)C(F)(F)F.O=C(O)C(F)(F)F [Compound 9a, N^1,N^1′-(Butane-1,4-diyl)bis(N^3-(2-(((3aR,4R,5R,7S,8S,9R,9aS,12R)-8-hydroxy-4,7,9,12-tetramethyl-3-oxo-7-vinyldecahydro-4,9a-propanocyclopenta [8]annulen-5-yl)oxy)-2-oxoethyl)propane-1,3-diaminium) 2,2,2-trifluoroacetate] | 2 | > 23.2 |  |  |  |  |
| C=C[C@]1(C)C[C@@H](OC(=O)CNCCCNCCCCCCCCNCCCNCC(=O)O[C@@H]2C[C@@](C)(C=C)[C@@H](O)[C@H](C)[C@]34CCC(=O)[C@H]3[C@@]2(C)[C@H](C)CC4)[C@]2(C)[C@H](C)CC[C@]3(CCC(=O)[C@H]32)[C@@H](C)[C@@H]1O.O=C(O)C(F)(F)F.O=C(O)C(F)(F)F.O=C(O)C(F)(F)F.O=C(O)C(F)(F)F [Compound 9d, N^1,N^1′-(Octane-1,8-diyl)bis(N^3-(2-(((3aR,4R,5R,7S,8S,9R,9aS,12R)-8-hydroxy-4,7,9,12-tetramethyl-3-oxo-7-vinyldecahydro-4,9a-propanocyclopenta [8]annulen-5-yl)oxy)-2-oxoethyl)propane-1,3-diaminium) 2,2,2-trifluoroacetate] | 2 | > 22.3 |  |  |  |  |
| C=C[C@]1(C)C[C@@H](OC(=O)CSCCN(CC)CC)[C@]2(C)[C@H](C)CC[C@]3(CCC(=O)[C@H]32)[C@@H](C)[C@@H]1O [Compound 2, Tiamulin, reference compound] | 0.5 | > 64.8 | > 405 | inhibited the growth | failing to exhibit any detectable membrane perturbation | No such inhibition |
| C=C[C@]1(C)C[C@@H](OC(=O)CNCCCNCCCCCCCNCCCNCC(=O)O[C@@H]2C[C@@](C)(C=C)[C@@H](O)[C@H](C)[C@]34CCC(=O)[C@H]3[C@@]2(C)[C@H](C)CC4)[C@]2(C)[C@H](C)CC[C@]3(CCC(=O)[C@H]32)[C@@H](C)[C@@H]1O.O=C(O)C(F)(F)F.O=C(O)C(F)(F)F.O=C(O)C(F)(F)F.O=C(O)C(F)(F)F [Compound 9c, N^1,N^1′-(Heptane-1,7-diyl)bis(N^3-(2-(((3aR,4R,5R,7S,8S,9R,9aS,12R)-8-hydroxy-4,7,9,12-tetramethyl-3-oxo-7-vinyldecahydro-4,9a-propanocyclopenta [8]annulen-5-yl)oxy)-2-oxoethyl)propane-1,3-diaminium) 2,2,2-trifluoroacetate] | 2 | > 22.5 |  |  |  |  |
| C=C[C@]1(C)C[C@@H](OC(=O)CNCCCNCCCCCCCCCCNCCCNCC(=O)O[C@@H]2C[C@@](C)(C=C)[C@@H](O)[C@H](C)[C@]34CCC(=O)[C@H]3[C@@]2(C)[C@H](C)CC4)[C@]2(C)[C@H](C)CC[C@]3(CCC(=O)[C@H]32)[C@@H](C)[C@@H]1O.O=C(O)C(F)(F)F.O=C(O)C(F)(F)F.O=C(O)C(F)(F)F.O=C(O)C(F)(F)F [Compound 9e, N^1,N^1′-(Decane-1,10-diyl)bis(N^3-(2-(((3aR,4R,5R,7S,8S,9R,9aS,12R)-8-hydroxy-4,7,9,12-tetramethyl-3-oxo-7-vinyldecahydro-4,9a-propanocyclopenta [8]annulen-5-yl)oxy)-2-oxoethyl)propane-1,3-diaminium) 2,2,2-trifluoroacetate] | 0.5 | > 21.9 | 8.54 | inhibited the growth | inactive | No such inhibition |
| C=C[C@]1(C)C[C@@H](OC(=O)CNCCCNCCCCCCCCCCCCNCCCNCC(=O)O[C@@H]2C[C@@](C)(C=C)[C@@H](O)[C@H](C)[C@]34CCC(=O)[C@H]3[C@@]2(C)[C@H](C)CC4)[C@]2(C)[C@H](C)CC[C@]3(CCC(=O)[C@H]32)[C@@H](C)[C@@H]1O.O=C(O)C(F)(F)F.O=C(O)C(F)(F)F.O=C(O)C(F)(F)F.O=C(O)C(F)(F)F [Compound 9f, N^1,N^1′-(Dodecane-1,12-diyl)bis(N^3-(2-(((3aR,4R,5R,7S,8S,9R,9aS,12R)-8-hydroxy-4,7,9,12-tetramethyl-3-oxo-7-vinyldecahydro-4,9a-propanocyclopenta [8]annulen-5-yl)oxy)-2-oxoethyl)propane-1,3-diaminium) 2,2,2-trifluoroacetate] | 0.5 | 8.3 | 8.38 |  |  |  |
| C=C[C@]1(C)C[C@@H](OC(=O)CNCCCNCCCCCCNCCCNCC(=O)O[C@@H]2C[C@@](C)(C=C)[C@@H](O)[C@H](C)[C@]34CCC(=O)[C@H]3[C@@]2(C)[C@H](C)CC4)[C@]2(C)[C@H](C)CC[C@]3(CCC(=O)[C@H]32)[C@@H](C)[C@@H]1O.O=C(O)C(F)(F)F.O=C(O)C(F)(F)F.O=C(O)C(F)(F)F.O=C(O)C(F)(F)F [Compound 9b, N^1,N^1′-(Hexane-1,6-diyl)bis(N^3-(2-(((3aR,4R,5R,7S,8S,9R,9aS,12R)-8-hydroxy-4,7,9,12-tetramethyl-3-oxo-7-vinyldecahydro-4,9a-propanocyclopenta [8]annulen-5-yl)oxy)-2-oxoethyl)propane-1,3-diaminium) 2,2,2-trifluoroacetate] | 1 | > 22.7 | 8.88 |  |  |  |
